Source: PubChem BioAssay AID1963835 (Molecular Pharmacology Branch, DTP, NCI, 2024)

Test system: 699152-130-R-J1-PDC complex spheroid viability
Assay: Anticancer human tumor 699152-130-R-J1-PDC patient-derived pancreatic carcinoma cell line growth inhibition [POLQ]
Conditions: for IC50: curve of first compound; for viability, T/C: stronger effect = lower value
Summary of the method: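 Complex spheroid viability model combining PDC tumour cells with endothelial (HUVEC) and MSC stromal cells. Novobiocin, ART-558 or RP6685 were tested singly and in combination with standard and investigational anticancer drugs. Each was titrated in half-log steps from near clinical Cmax, or from 10 microM where Cmax was unknown.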

[1] = second compound 0.0316 µM, first compound 0.0316 µM
[2] = second compound 0.0316 µM, first compound 0.1 µM
[3] = second compound 0.0316 µM, first compound 0.316 µM
[4] = second compound 0.0316 µM, first compound 1 µM
[5] = second compound 0.0316 µM, first compound 3.16 µM
[6] = second compound 0.0316 µM, first compound 10 µM
[7] = second compound 0.1 µM, first compound 0.0316 µM
[8] = second compound 0.1 µM, first compound 0.1 µM
[9] = second compound 0.1 µM, first compound 0.316 µM
[10] = second compound 0.1 µM, first compound 1 µM
[11] = second compound 0.1 µM, first compound 3.16 µM
[12] = second compound 0.1 µM, first compound 10 µM
[13] = second compound 0.316 µM, first compound 0.0316 µM
[14] = second compound 0.316 µM, first compound 0.1 µM
[15] = second compound 0.316 µM, first compound 0.316 µM
[16] = second compound 0.316 µM, first compound 1 µM
[17] = second compound 0.316 µM, first compound 3.16 µM
[18] = second compound 0.316 µM, first compound 10 µM
[19] = second compound 1 µM, first compound 0.0316 µM
[20] = second compound 1 µM, first compound 0.1 µM
[21] = second compound 1 µM, first compound 0.316 µM
[22] = second compound 1 µM, first compound 1 µM
[23] = second compound 1 µM, first compound 3.16 µM
[24] = second compound 1 µM, first compound 10 µM
[25] = second compound 3.16 µM, first compound 0.0316 µM
[26] = second compound 3.16 µM, first compound 0.1 µM
[27] = second compound 3.16 µM, first compound 0.316 µM
[28] = second compound 3.16 µM, first compound 1 µM
[29] = second compound 3.16 µM, first compound 3.16 µM
[30] = second compound 3.16 µM, first compound 10 µM
[31] = second compound 10 µM, first compound 0.0316 µM
[32] = second compound 10 µM, first compound 0.1 µM
[33] = second compound 10 µM, first compound 0.316 µM
[34] = second compound 10 µM, first compound 1 µM
[35] = second compound 10 µM, first compound 3.16 µM
[36] = second compound 10 µM, first compound 10 µM
[37] = second compound 0.0316 µM, first compound 0.00316 µM
[38] = second compound 0.0316 µM, first compound 0.01 µM
[39] = second compound 0.1 µM, first compound 0.00316 µM
[40] = second compound 0.1 µM, first compound 0.01 µM
[41] = second compound 0.316 µM, first compound 0.00316 µM
[42] = second compound 0.316 µM, first compound 0.01 µM
[43] = second compound 1 µM, first compound 0.00316 µM
[44] = second compound 1 µM, first compound 0.01 µM
[45] = second compound 3.16 µM, first compound 0.00316 µM
[46] = second compound 3.16 µM, first compound 0.01 µM
[47] = second compound 10 µM, first compound 0.00316 µM
[48] = second compound 10 µM, first compound 0.01 µM
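Further: spheroids exposed to agents for 7 days before viability reading.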
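Wherever viability, T/C is given: percent of DMSO vehicle control viability so 100% = vehicle and 0% = no viable signal.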

COc1cc(C2c3cc4c(cc3C(OC3OC5COC(C)OC5C(O)C3O)C3COC(=O)C23)OCO4)cc(OC)c1O (stereo not drawn) + Cc1cccc(N(C)C(=O)C2C(O)CCN2c2nc(C)cc(C(F)(F)F)c2C#N)c1
IC50 (second compound 0.0316 µM): 6730 nM | IC50 (second compound 0.1 µM): > 10000 nM | IC50 (second compound 0.316 µM): 7650 nM | IC50 (second compound 1 µM): > 10000 nM | IC50 (second compound 3.16 µM): > 10000 nM | IC50 (second compound 10 µM): > 10000 nM | viability, T/C [1]: 111% | viability, T/C [2]: 108% | viability, T/C [3]: 76.4% | viability, T/C [4]: 72.2% | viability, T/C [5]: 52.5% | viability, T/C [6]: 47.6% | viability, T/C [7]: 101% | viability, T/C [8]: 84.6% | viability, T/C [9]: 72.9% | viability, T/C [10]: 72.8% | viability, T/C [11]: 55% | viability, T/C [12]: 50.8% | viability, T/C [13]: 102% | viability, T/C [14]: 96.3% | viability, T/C [15]: 83.4% | viability, T/C [16]: 74.2% | viability, T/C [17]: 58.9% | viability, T/C [18]: 47.2% | viability, T/C [19]: 112% | viability, T/C [20]: 86.1% | viability, T/C [21]: 81.9% | viability, T/C [22]: 74.9% | viability, T/C [23]: 63.7% | viability, T/C [24]: 47.3% | viability, T/C [25]: 98% | viability, T/C [26]: 101% | viability, T/C [27]: 71.8% | viability, T/C [28]: 74.4% | viability, T/C [29]: 62.2% | viability, T/C [30]: 51.2% | viability, T/C [31]: 101% | viability, T/C [32]: 77.7% | viability, T/C [33]: 70.6% | viability, T/C [34]: 75.9% | viability, T/C [35]: 71.1% | viability, T/C [36]: 55.9%

C=CCn1c(=O)c2cnc(Nc3ccc(N4CCN(C)CC4)cc3)nc2n1-c1cccc(C(C)(C)O)n1 + Cc1cccc(N(C)C(=O)C2C(O)CCN2c2nc(C)cc(C(F)(F)F)c2C#N)c1
IC50 (second compound 0.0316 µM): > 1000 nM | IC50 (second compound 0.1 µM): > 1000 nM | IC50 (second compound 0.316 µM): > 1000 nM | IC50 (second compound 1 µM): > 1000 nM | IC50 (second compound 3.16 µM): > 1000 nM | IC50 (second compound 10 µM): > 1000 nM | viability, T/C [37]: 94.8% | viability, T/C [38]: 91% | viability, T/C [1]: 87.4% | viability, T/C [2]: 86.9% | viability, T/C [3]: 80.3% | viability, T/C [4]: 73% | viability, T/C [39]: 87.9% | viability, T/C [40]: 90.2% | viability, T/C [7]: 95.6% | viability, T/C [8]: 83.9% | viability, T/C [9]: 82.2% | viability, T/C [10]: 68.7% | viability, T/C [41]: 88.8% | viability, T/C [42]: 91.4% | viability, T/C [13]: 89.4% | viability, T/C [14]: 82.7% | viability, T/C [15]: 85.4% | viability, T/C [16]: 69.8% | viability, T/C [43]: 96.5% | viability, T/C [44]: 85.2% | viability, T/C [19]: 102% | viability, T/C [20]: 84% | viability, T/C [21]: 80.2% | viability, T/C [22]: 67% | viability, T/C [45]: 83.3% | viability, T/C [46]: 107% | viability, T/C [25]: 97.6% | viability, T/C [26]: 99.2% | viability, T/C [27]: 81.7% | viability, T/C [28]: 65.4% | viability, T/C [47]: 84.8% | viability, T/C [48]: 89.3% | viability, T/C [31]: 89.2% | viability, T/C [32]: 86.7% | viability, T/C [33]: 78.1% | viability, T/C [34]: 73.9%

O=C(Nc1ccc(O)c(NS(=O)(=O)c2ccc(F)cc2)c1)c1ccc(-c2ccccc2)cc1 + Nc1ccc(C#CCN(C(=O)Cc2ncc(C(F)(F)F)cc2C(F)(F)F)c2ccc(F)cc2)nn1
IC50 (second compound 0.0316 µM): > 10000 nM | IC50 (second compound 0.1 µM): > 10000 nM | IC50 (second compound 0.316 µM): > 10000 nM | IC50 (second compound 1 µM): > 10000 nM | IC50 (second compound 3.16 µM): > 10000 nM | IC50 (second compound 10 µM): > 10000 nM | viability, T/C [1]: 101% | viability, T/C [2]: 95.9% | viability, T/C [3]: 98.2% | viability, T/C [4]: 111% | viability, T/C [5]: 100% | viability, T/C [6]: 62.8% | viability, T/C [7]: 89.5% | viability, T/C [8]: 102% | viability, T/C [9]: 95.2% | viability, T/C [10]: 103% | viability, T/C [11]: 102% | viability, T/C [12]: 59.4% | viability, T/C [13]: 116% | viability, T/C [14]: 108% | viability, T/C [15]: 114% | viability, T/C [16]: 101% | viability, T/C [17]: 110% | viability, T/C [18]: 68.8% | viability, T/C [19]: 108% | viability, T/C [20]: 103% | viability, T/C [21]: 104% | viability, T/C [22]: 102% | viability, T/C [23]: 102% | viability, T/C [24]: 64.7% | viability, T/C [25]: 104% | viability, T/C [26]: 103% | viability, T/C [27]: 103% | viability, T/C [28]: 107% | viability, T/C [29]: 112% | viability, T/C [30]: 67.9% | viability, T/C [31]: 110% | viability, T/C [32]: 122% | viability, T/C [33]: 114% | viability, T/C [34]: 103% | viability, T/C [35]: 109% | viability, T/C [36]: 59.3%

CCc1c2c(nc3ccc(O)cc13)-c1cc3c(c(=O)n1C2)COC(=O)[C@]3(O)CC + Nc1ccc(C#CCN(C(=O)Cc2ncc(C(F)(F)F)cc2C(F)(F)F)c2ccc(F)cc2)nn1
IC50 (second compound 0.0316 µM): 60.2 nM | IC50 (second compound 0.1 µM): 48.3 nM | IC50 (second compound 0.316 µM): 66.8 nM | IC50 (second compound 1 µM): 36.3 nM | IC50 (second compound 3.16 µM): 55.5 nM | IC50 (second compound 10 µM): 49.5 nM | viability, T/C [37]: 82.1% | viability, T/C [38]: 55.2% | viability, T/C [1]: 58.4% | viability, T/C [2]: 47.2% | viability, T/C [3]: 36.4% | viability, T/C [4]: 11.4% | viability, T/C [39]: 83.1% | viability, T/C [40]: 57.4% | viability, T/C [7]: 52% | viability, T/C [8]: 48.3% | viability, T/C [9]: 32.6% | viability, T/C [10]: 12.6% | viability, T/C [41]: 72.7% | viability, T/C [42]: 61.6% | viability, T/C [13]: 55.8% | viability, T/C [14]: 47.1% | viability, T/C [15]: 32% | viability, T/C [16]: 8.12% | viability, T/C [43]: 74.7% | viability, T/C [44]: 55.2% | viability, T/C [19]: 51.2% | viability, T/C [20]: 44.3% | viability, T/C [21]: 30.5% | viability, T/C [22]: 14.9% | viability, T/C [45]: 88.7% | viability, T/C [46]: 66.4% | viability, T/C [25]: 54.4% | viability, T/C [26]: 48.5% | viability, T/C [27]: 29.6% | viability, T/C [28]: 10.8% | viability, T/C [47]: 92.2% | viability, T/C [48]: 71.2% | viability, T/C [31]: 52.2% | viability, T/C [32]: 44.2% | viability, T/C [33]: 27.7% | viability, T/C [34]: 9.98%
